Source: US9700058B2, “Dispersion and detachment of cell aggregates” (priority 2011, dated 2017)
Positions of bridges follow the written chain, without caps; N, C: chain ends. No end group written: not given here.

These sequences were tested on Staphylococcus aureus (ATCC25923) (assay: Biofilm prevention, crystal violet, 96-well plate). Conditions: peptide 100 ng/ml, added simultaneously, 24 h, 37° C.
Type: cell-based
Description: (§1) The peptides depicted in Table 1 (each with a cysteine attached to the N- and C-terminus of the peptides) were synthesized using solid-phase methods and were purified to 90% (Peptron, Inc.; Taejeon, South Korea). The peptides were dissolved in 20 μl dimethyl sulfoxide and diluted in double distilled water to a concentration of 10 mg/ml. Additional dilutions were performed in phosphate buffered saline (PBS).
(§2) The ability of these peptides to prevent microbial adhesion to a surface or detach microbial adhesion from a surface were measured against the following microbial strains: Pseudomonas aeruginosa (ATCC27853), Staphylococcus aureus (ATCC25923), Candida albicans (ATCC14053) and Acinetobacter baumannii (clinical isolate). Specifically, peptides diluted to concentrations of 100 ng/ml were incubated with the foregoing microbes for 24 hours.
(§3) Biofilms of the foregoing microorganisms were grown in a 96-well found-bottom polystyrene plate. Specifically, 180 μl of overnight cultures were added to the wells with 20 μl of each peptide diluted in PBS, either simultaneously to measure prevention or after a period of time to measure detachment from 4 hours up to 24 hours post incubation. After 24 hours of incubation at 37° C., each well was washed with water and stained with 250 μl of crystal violet solution. The crystal violet solution was then removed by thoroughly washing the wells with water. To quantify the number of bacteria cells attached to the wells, the crystal violet was solubilized in 250 μl of 1% sodium dodecyl sulfate and the absorbance was measured at 595 nm.
(§4) The ability of these peptides to (1) prevent microbial adhesion to a surface and to (2) detach microbes already adhered to a surface were measured against the following microbial strains: Pseudomonas aeruginosa (ATCC27853), Staphylococcus aureus (ATCC25923), Candida albicans (ATCC14053) and/or Escherichia coli. The resulting percentage of prevention or detachment, relative to control wells in which the microbes was allowed to culture in the absence of peptides, are indicated in FIGS. 13 to 16.

Compared with “CSELSSFNFDWYNVC (disulfide 1-15 (inferred)) [CionaZ-S-cyc]”, “CSRYSSFDYDWYNVC (disulfide 1-15 (inferred)) [XenoZ-S-cyc]” is lower in “Biofilm prevention (%)” value: 90% for the first, 65% for the second.

Going from “CSVPFDYNLYSNWC [PhyscoZ-cyc] (also: cyclised)” to “CSVPFDYNLYSNWC [SelagZ-cyc] (disulfide 1-14 (inferred))”, the “Biofilm prevention (%)” value rises from 65% to 88%.

Compared with “CTVHSFDYDWYNVC (disulfide 1-14 (inferred)) [CapraZ-cyc]”, “CTVNSFDYDWYNVC (disulfide 1-14 (inferred)) [AnoliZ-cyc]” is higher in “Biofilm prevention (%)” value: 42% for the first, 75% for the second.

What follows are sequences tested on Acinetobacter baumannii (clinical isolate) (assay: Biofilm detachment, crystal violet, 96-well plate). Conditions: peptide 100 ng/ml, added after adhesion.
Type: cell-based
Description: as §1, §2, §3

Going from “CSELSSFNFDWYNVC (disulfide 1-15 (inferred)) [CionaZ-S-cyc]” to “CSRYSSFDYDWYNVC (disulfide 1-15 (inferred)) [XenoZ-S-cyc]”, the “Detachment (%) (100 ng/ml)” value falls from 80% to 49%.

“CSVPFDYNLYSNWC [PhyscoZ-cyc] (also: cyclised)” and “CSVPFDYNLYSNWC [SelagZ-cyc] (disulfide 1-14 (inferred))” are the same in “Detachment (%) (100 ng/ml)” value: 50% for the first, 50% for the second.

These sequences were tested on Acinetobacter baumannii (clinical isolate) (assay: Biofilm prevention, crystal violet, 96-well plate). Conditions: peptide 10 ng/ml, added simultaneously, 24 h, 37° C.
Type: cell-based
Description: as §1
(§5) The ability of these peptides to prevent microbial adhesion to a surface or detach microbial adhesion from a surface were measured against the following microbial strains: Pseudomonas aeruginosa (ATCC27853), Staphylococcus aureus (ATCC25923), Candida albicans (ATCC14053) and Acinetobacter baumannii (clinical isolate). […]
as §3

In the case of “CTVNSFDYDWYNVC (disulfide 1-14 (inferred)) [AnoliZ-cyc]”, the “Biofilm prevention (%)” value is reported as 92%.

Same assay, conditions: peptide 100 ng/ml, added simultaneously, 24 h, 37° C.

Compared with “CSELSSFNFDWYNVC (disulfide 1-15 (inferred)) [CionaZ-S-cyc]”, “CSRYSSFDYDWYNVC (disulfide 1-15 (inferred)) [XenoZ-S-cyc]” is higher in “Biofilm prevention (%)” value: 52% for the first, 95% for the second.

Compared with “CSVPFDYNLYSNWC [SelagZ-cyc] (disulfide 1-14 (inferred))”, “CTVHSFDYDWYNVC (disulfide 1-14 (inferred)) [CapraZ-cyc]” is higher in “Biofilm prevention (%)” value: 80% for the first, 90% for the second.

What follows are sequences tested on Candida albicans (ATCC14053) (assay: Biofilm prevention, crystal violet, 96-well plate). Conditions: peptide 10 ng/ml, added simultaneously, 24 h, 37° C.
Type: cell-based
Description: as §1, §5, §3, §4

Compared with “CSVPFDYNLYSNWC [PhyscoZ-cyc] (also: cyclised)”, “CSVPFDYNLYSNWC [SelagZ-cyc] (disulfide 1-14 (inferred))” is higher in “Biofilm prevention (%)” value: 62% for the first, 80% for the second.

Same assay, conditions: peptide 100 ng/ml, added simultaneously, 24 h, 37° C.

First: CSELSSFNFDWYNVC (disulfide 1-15 (inferred)) [CionaZ-S-cyc]
Second: CSRYSSFDYDWYNVC (disulfide 1-15 (inferred)) [XenoZ-S-cyc]
The “Biofilm prevention (%)” value of the first is lower: 68% for the first, 75% for the second.

First: CTVHSFDYDWYNVC (disulfide 1-14 (inferred)) [CapraZ-cyc]
Second: CTVNSFDYDWYNVC (disulfide 1-14 (inferred)) [AnoliZ-cyc]
The “Biofilm prevention (%)” value of the first is lower: 25% for the first, 55% for the second.

The sequences below were run on Pseudomonas aeruginosa (ATCC27853) (assay: Biofilm prevention, crystal violet, 96-well plate). Conditions: peptide 10 ng/ml, added simultaneously, 24 h, 37° C.
Type: cell-based
Description: as §1, §5, §3, §4

“CSRYSSFDYDWYNVC (disulfide 1-15 (inferred)) [XenoZ-S-cyc]” was tested, and the “Biofilm prevention (%)” value was 57%.

Same assay, conditions: peptide 100 ng/ml, added simultaneously, 24 h, 37° C.

Compared with “CSELSSFNFDWYNVC (disulfide 1-15 (inferred)) [CionaZ-S-cyc]”, “CSVPFDYNLYSNWC [PhyscoZ-cyc] (also: cyclised)” is higher in “Biofilm prevention (%)” value: 75% for the first, 95% for the second.

Going from “CSVPFDYNLYSNWC [SelagZ-cyc] (disulfide 1-14 (inferred))” to “CTVHSFDYDWYNVC (disulfide 1-14 (inferred)) [CapraZ-cyc]”, the “Biofilm prevention (%)” value falls from 88% to 68%.

In the case of “CTVNSFDYDWYNVC (disulfide 1-14 (inferred)) [AnoliZ-cyc]”, the “Biofilm prevention (%)” value is reported as 95%.

Each sequence was assayed on Pseudomonas aeruginosa (ATCC 27853) (assay: Detachment of pre-formed biofilm from a well (Examples 1-7)). Conditions: 2-hour biofilm, 24-hour peptide incubation, different concentrations, crystal violet OD 595 nm.
Type: cell-based
Description: A biofilm was created by incubating Pseudomonas aeruginosa (ATCC 27853) overnight in wells at 37° C., allowing the microorganism to attach to the well surface. Eqt2Z-cyc peptide [Custom Peptide Synthesis; Peptron, Korea] at different concentrations was subsequently added to the wells and allowed to incubate overnight. The P.a. control was Pseudomonas aeruginosa alone.
A biofilm was created by culturing Pseudomonas aeruginosa (ATCC 27853) for 2 hours in a well at 37° C. Eqt2Z-cyc peptide at different concentrations was subsequently added to the well and allowed to incubate overnight. The Abac10-cyc peptide served as a negative control. The P.a. control was Pseudomonas aeruginosa alone.
A biofilm was created by culturing Pseudomonas aeruginosa (ATCC 27853) for 2 hours in a well at 37° C. Eqt2Z-cyc peptide at different concentrations was subsequently added to the well and allowed to incubate for 24 hours. The Abac10-cyc peptide served as a negative control. The P.a. control was Pseudomonas aeruginosa alone. […] Staining was performed with crystal violet at OD 595 nm.
A biofilm was created by culturing Pseudomonas aeruginosa (ATCC 27853) for 2 hours in a well at 37° C. grZ14s-nvCyc peptide [Custom Peptide Synthesis; Peptron, Korea] at different concentrations was subsequently added to the well and allowed to incubate for 24 hours. The Abac10-cyc peptide served as a negative control. The P.a. control was Pseudomonas aeruginosa alone. […] Staining was performed with crystal violet at OD 595 nm.
A biofilm was created by culturing Pseudomonas aeruginosa (ATCC 27853) for 24 hours in a well at 37° C. Eqt2Z-cyc peptide at different concentrations was subsequently added to the well and allowed to incubate for 24 hours. The Abac10-cyc peptide served as a negative control. The P.a. control was Pseudomonas aeruginosa alone. […] Staining was performed with crystal violet at OD 595 nm.
A biofilm was created by culturing Pseudomonas aeruginosa (ATCC 27853) for 24 hours in a well at 37° C. grZ14s-nvCyc peptide at different concentrations was subsequently added to the well and allowed to incubate for 24 hours. The Abac10-cyc peptide served as a negative control. The P.a. control was Pseudomonas aeruginosa alone. […] Staining was performed with crystal violet at OD 595 nm.
A biofilm was created by culturing Pseudomonas aeruginosa (ATCC 27853) for 24 hours in a well at 37° C. PhyscoZ-Cyc peptide [Custom Peptide Synthesis; Peptron, Korea] at different concentrations was subsequently added to the well and allowed to incubate for 24 hours. The P.a. control was Pseudomonas aeruginosa alone. […] Staining was performed with crystal violet at OD 595 nm.

In the case of “CSVPYDYNWYSNWC (disulfide 1-14 (inferred)) [Eqt2Z-cyc]”, the microorganism detachment is reported as “far greater microorganism detachment than in the P.a. control or negative control”.

Same assay, conditions: 2-hour biofilm, overnight peptide incubation, different concentrations

“CSVPYDYNWYSNWC (disulfide 1-14 (inferred)) [Eqt2Z-cyc]” was tested, and the microorganism detachment was “far greater microorganism detachment than in the P.a. control or negative control”.

Same assay, conditions: 24-hour biofilm, 24-hour peptide incubation, different concentrations, crystal violet OD 595 nm

In the case of “CSVPFDYNLYSNWC [PhyscoZ-cyc] (also: cyclised)”, the microorganism detachment is reported as “far greater microorganism detachment than in the P.a. control”.
In the case of “CSVPYDYNWYSNWC (disulfide 1-14 (inferred)) [Eqt2Z-cyc]”, the microorganism detachment is reported as “far greater microorganism detachment than in the P.a. control or negative control”.

Same assay, conditions: overnight biofilm, overnight peptide incubation, different concentrations

In the case of “CSVPYDYNWYSNWC (disulfide 1-14 (inferred)) [Eqt2Z-cyc]”, the microorganism detachment is reported as “far greater microorganism detachment than in the P.a. control”.

What follows are sequences tested on Candida albicans (ATCC14053) (assay: Biofilm detachment, crystal violet, 96-well plate). Conditions: peptide 100 ng/ml, added after adhesion.
Type: cell-based
Description: as §1, §2, §3, §4

Compared with “CSELSSFNFDWYNVC (disulfide 1-15 (inferred)) [CionaZ-S-cyc]”, “CSRYSSFDYDWYNVC (disulfide 1-15 (inferred)) [XenoZ-S-cyc]” is higher in “Detachment (%) (100 ng/ml)” value: 42% for the first, 50% for the second.

Going from “CTVHSFDYDWYNVC (disulfide 1-14 (inferred)) [CapraZ-cyc]” to “CTVNSFDYDWYNVC (disulfide 1-14 (inferred)) [AnoliZ-cyc]”, the “Detachment (%) (100 ng/ml)” value rises from 60% to 72%.

What follows are sequences tested on Staphylococcus aureus (ATCC25923) (assay: Biofilm detachment, crystal violet, 96-well plate). Conditions: peptide 100 ng/ml, added after adhesion.
Type: cell-based
Description: as §1, §2, §3, §4

First: CSVPFDYNLYSNWC [PhyscoZ-cyc] (also: cyclised)
Second: CSVPFDYNLYSNWC [SelagZ-cyc] (disulfide 1-14 (inferred))
The “Detachment (%) (100 ng/ml)” value of the first is higher: 70% for the first, 35% for the second.

First: CTVHSFDYDWYNVC (disulfide 1-14 (inferred)) [CapraZ-cyc]
Second: CTVNSFDYDWYNVC (disulfide 1-14 (inferred)) [AnoliZ-cyc]
The “Detachment (%) (100 ng/ml)” value of the first is lower: 55% for the first, 72% for the second.

What follows are sequences tested on Pseudomonas aeruginosa (ATCC27853) (assay: Biofilm detachment, crystal violet, 96-well plate). Conditions: peptide 100 ng/ml, added after adhesion.
Type: cell-based
Description: as §1, §2, §3, §4

Going from “CSELSSFNFDWYNVC (disulfide 1-15 (inferred)) [CionaZ-S-cyc]” to “CSRYSSFDYDWYNVC (disulfide 1-15 (inferred)) [XenoZ-S-cyc]”, the “Detachment (%) (100 ng/ml)” value falls from 78% to 30%.

Going from “CSVPFDYNLYSNWC [PhyscoZ-cyc] (also: cyclised)” to “CSVPFDYNLYSNWC [SelagZ-cyc] (disulfide 1-14 (inferred))”, the “Detachment (%) (100 ng/ml)” value falls from 75% to 67%.

Going from “CTVHSFDYDWYNVC (disulfide 1-14 (inferred)) [CapraZ-cyc]” to “CTVNSFDYDWYNVC (disulfide 1-14 (inferred)) [AnoliZ-cyc]”, the “Detachment (%) (100 ng/ml)” value rises from 65% to 90%.
